Data reported in patent publication US10201510B2, “Compositions and methods for treatment of neurological symptoms associated with alcohol-withdrawal and for convulsive seizure” (Oregon Health & Science University, priority 2005, dated 2019).
Each block holds one compound with its values, some of them ahead of it.

Experiments:
[1] = system: microsomal FolDH; assay: Recognition by microsomal FolDH; type: in vitro ADME
[2] = system: withdrawal seizures in alcohol-dependent mice; assay: Predicted anti-seizure activity; type: in vivo, mouse; set-up: key: la = long-acting; The ++ farnesol activity was arbitrary; settings: for Predicted anti-seizure activity: long-acting (la): duration flag in brackets
[3] = system: ADH; assay: Metabolism / substrate recognition by ADH; type: in vitro ADME
[4] = target: T1, neuronal voltage-gated, L-type (Cav1.3) α1D subunit Ca^2+ channel (Rattus norvegicus, UniProt P27732); assay: KCl-induced Ca^2+ signaling in fura-2 loaded PC12 cells; type: cell-based; settings: for block of KCl-induced Ca^2+ signaling: PC12 cells in culture, n=3/group, FIG. 3; for activity on neuronal L-type Ca^2+ channels compared with all-trans farnesol: non-NGF PC12 cells, fura-2, FIG. 1 / FIG. 3
T1 construct: KCl-induced intracellular Ca^2+ signaling in non-NGF treated PC12 cells loaded with fura-2; endogenous in cells; host or cells: PC12 cells (non-NGF treated)
Excerpt: According to particular aspects of the present invention, the alcohol group is essential for activity. Additionally, the activity of farnesol metabolites on neuronal voltage-gated L-type Ca^2+ channels was investigated. […] The Ca^2+ channel activity is expressed as % inhibition of KCl-induced intracellular Ca^2+ signaling in non-NGF differentiated PC12 cells loaded with fura-2 (see Materials and Methods under Example 2). The assayed molecules are: FPP—farnesyl pyrophosphate; FOH—all-trans farnesol; FCHO—all-trans farnesal; and FCOOH—all-trans farnesoic acid (prepared by Dr. McDougal).
(§1) To identify compounds with enhanced L-type Ca^2+ channel blocker activity, several compounds were either purchased or synthesized, and then tested for their ability to inhibit: (1) KCl-induced contraction in isolated arteries; (2) KCl-induced Ca^2+ signaling in fura-2 loaded arteries; and (3) KCl-induced Ca^2+ signaling in fura-2 loaded PC12 cells, all using art-recognized methods established in the applicants' laboratories (Roullet, 1993, 1994, 1995, 1997; De Lima, 1999). Arteries express smooth muscle voltage-gated, L-type (Cav1.2 or α1C subunit) Ca^2+ channels, whereas PC12 cells constitutively express the neuronal voltage-gated, L-type (Cav1.3) α1D subunit (Ertel, 2000).
Ca^2+ channel activity is expressed as % inhibition of KCl-induced intracellular Ca^2+ signaling in non-NGF treated PC12 cells loaded with fura-2.

[5] = system: WSP1 mice; assay: Acute ethanol withdrawal HIC scoring in WSP1 mice; type: in vivo, mouse
Procedure: experiments were conducted in two mouse strains: […], 1994; Crabbe & […], in preparation), but are sometimes preferred to the WSP1 mice for the screening of anti-AWS drugs, because of their lower basal level of convulsions (in the absence of alcohol). […] Immediately after the hour-7 time point HIC score (a time of maximal withdrawal in this strain), animals were injected with either 200 mg/kg farnesol (suspension in saline containing 3 g/l bovine serum albumin) or vehicle, and scored 8, 16, 24, 32, 40, 48 and 56 minutes later using a scale from 0 to 7 (Crabbe, 1991; scoring scale shown in TABLE 1). The time course was then resumed (animals were scored at hour 8, etc.).

[6] = target: T2, N-type Ca^2+ channel (α1B) (Homo sapiens, UniProt Q00975); settings: cited from earlier work
T2 construct: host or cells: HEK cells

[7] = target: T3, P/Q-type Ca^2+ channels (α1A) (Homo sapiens, UniProt O00555); settings: micromolar concentration; cited from earlier work
T3 construct: host or cells: HEK cells

[8] = target: T4, voltage-gated L-type Ca^2+ channels (Homo sapiens, UniProt Q13936); settings: cited from earlier work
T4 construct: host or cells: arteries / vascular smooth muscle cells

[9] = target: T5, cardiac L-type Ca^2+ channels (α1C) (Homo sapiens, UniProt Q13936); settings: micromolar concentration; cited from earlier work
T5 construct: host or cells: HEK cells

[10] = system: DBA/2J mice; type: in vivo, mouse
Procedure: experiments were conducted in two mouse strains: Withdrawal Seizure Prone replicate 1 (WSP1); and DBA/2J. WSP1 mice have been selectively bred for their high sensitivity to ethanol and enhanced expression of alcohol withdrawal seizures (Kosobud, 1995; Metten, 1996). DBA/J2 mice also have pronounced alcohol withdrawal symptoms following either chronic treatment or a single injection of a hypnotic dose of alcohol (Crabbe, 1983; Metten, 1994; Crabbe & Metten, in preparation), but are sometimes preferred to the WSP1 mice for the screening of anti-AWS drugs, because of their lower basal level of convulsions (in the absence of alcohol).
DBA/2J mice (males and females; mean BW=23 g; n=44) were injected intra peritoneally (i.p.) with a loading dose of 1.5 g/kg ethanol (20% v/v saline solution) and with 68.1 mg/kg pyrazole hydrochloride, and then placed for 72 h into inhalation chambers (3-4 animals/cage) set at 5 mg ethanol/L air (Guppy, 1995; Crabbe, 1998). The animals were removed from the chambers after 24 and 48 h, and re-injected with pyrazole. The pyrazole injections are necessary to reduce mortality and heterogeneity in withdrawal reactions (Goldstein, 1972). A second group of animals matched for BW and sex (n=32), were housed under normal (‘air-breathing’) conditions and served as pyrazole-injected controls. All animals had free access to food and water and were housed with a 12 hr day-night light cycle. Upon withdrawal from the chambers (t=0), body weight was determined and a tail blood sample was collected for the determination of blood alcohol concentration (BEC, alcohol-treated animals only; Crabbe, 1998). […] Injections were made either 3 hours (GROUP A) or 6 hours (GROUP B) after withdrawal (approximately half of the animals were used in each group). These time points were chosen to precede peak withdrawal (GROUP A at 3 hours) as it begins to ascend above control levels to determine whether farnesol would prevent withdrawal, and to treat withdrawal at its peak (GROUP B at 6 hours). HICs were scored hourly until injections (0 to 3 h for GROUP A and 0 to 6 h for GROUP B). Immediately after HIC scoring at the hour-3 or hour-6 time points, the animals were injected with farnesol or vehicle, and scored 10, 20, 30 and 40 minutes later. The hourly scoring was then resumed at either 4 hours or 7 hours, and continued to the 10-hour time point.

[11] = system: pentylenetetrazole-induced seizures; settings: in vivo; cited from earlier work
[12] = target: T1, neuronal voltage-gated, L-type (Cav1.3) α1D subunit Ca^2+ channel; settings: PC12 cells; cited from earlier work
[13] = target: T6, R-type Ca^2+ channels (α1E) (Homo sapiens, UniProt Q15878); settings: micromolar concentration; cited from earlier work
T6 construct: host or cells: HEK cells

[14] = target: T7, smooth muscle voltage-gated, L-type (Cav1.2 or α1C subunit) Ca^2+ channels (Mus musculus, UniProt Q01815); assay: KCl-induced contraction in isolated arteries; settings: FIG. 5 / FIG. 6 (25 μM)
T7 construct: KCl-induced contraction in isolated arteries; from tissue; host or cells: mouse mesenteric arteries
Procedure: Contractions obtained after 30 min. incubation with the test compounds (left portion of graph), and after a 60-min. wash-out (right portion of graph).
as §1

T7 sequence (Q01815 whole entry): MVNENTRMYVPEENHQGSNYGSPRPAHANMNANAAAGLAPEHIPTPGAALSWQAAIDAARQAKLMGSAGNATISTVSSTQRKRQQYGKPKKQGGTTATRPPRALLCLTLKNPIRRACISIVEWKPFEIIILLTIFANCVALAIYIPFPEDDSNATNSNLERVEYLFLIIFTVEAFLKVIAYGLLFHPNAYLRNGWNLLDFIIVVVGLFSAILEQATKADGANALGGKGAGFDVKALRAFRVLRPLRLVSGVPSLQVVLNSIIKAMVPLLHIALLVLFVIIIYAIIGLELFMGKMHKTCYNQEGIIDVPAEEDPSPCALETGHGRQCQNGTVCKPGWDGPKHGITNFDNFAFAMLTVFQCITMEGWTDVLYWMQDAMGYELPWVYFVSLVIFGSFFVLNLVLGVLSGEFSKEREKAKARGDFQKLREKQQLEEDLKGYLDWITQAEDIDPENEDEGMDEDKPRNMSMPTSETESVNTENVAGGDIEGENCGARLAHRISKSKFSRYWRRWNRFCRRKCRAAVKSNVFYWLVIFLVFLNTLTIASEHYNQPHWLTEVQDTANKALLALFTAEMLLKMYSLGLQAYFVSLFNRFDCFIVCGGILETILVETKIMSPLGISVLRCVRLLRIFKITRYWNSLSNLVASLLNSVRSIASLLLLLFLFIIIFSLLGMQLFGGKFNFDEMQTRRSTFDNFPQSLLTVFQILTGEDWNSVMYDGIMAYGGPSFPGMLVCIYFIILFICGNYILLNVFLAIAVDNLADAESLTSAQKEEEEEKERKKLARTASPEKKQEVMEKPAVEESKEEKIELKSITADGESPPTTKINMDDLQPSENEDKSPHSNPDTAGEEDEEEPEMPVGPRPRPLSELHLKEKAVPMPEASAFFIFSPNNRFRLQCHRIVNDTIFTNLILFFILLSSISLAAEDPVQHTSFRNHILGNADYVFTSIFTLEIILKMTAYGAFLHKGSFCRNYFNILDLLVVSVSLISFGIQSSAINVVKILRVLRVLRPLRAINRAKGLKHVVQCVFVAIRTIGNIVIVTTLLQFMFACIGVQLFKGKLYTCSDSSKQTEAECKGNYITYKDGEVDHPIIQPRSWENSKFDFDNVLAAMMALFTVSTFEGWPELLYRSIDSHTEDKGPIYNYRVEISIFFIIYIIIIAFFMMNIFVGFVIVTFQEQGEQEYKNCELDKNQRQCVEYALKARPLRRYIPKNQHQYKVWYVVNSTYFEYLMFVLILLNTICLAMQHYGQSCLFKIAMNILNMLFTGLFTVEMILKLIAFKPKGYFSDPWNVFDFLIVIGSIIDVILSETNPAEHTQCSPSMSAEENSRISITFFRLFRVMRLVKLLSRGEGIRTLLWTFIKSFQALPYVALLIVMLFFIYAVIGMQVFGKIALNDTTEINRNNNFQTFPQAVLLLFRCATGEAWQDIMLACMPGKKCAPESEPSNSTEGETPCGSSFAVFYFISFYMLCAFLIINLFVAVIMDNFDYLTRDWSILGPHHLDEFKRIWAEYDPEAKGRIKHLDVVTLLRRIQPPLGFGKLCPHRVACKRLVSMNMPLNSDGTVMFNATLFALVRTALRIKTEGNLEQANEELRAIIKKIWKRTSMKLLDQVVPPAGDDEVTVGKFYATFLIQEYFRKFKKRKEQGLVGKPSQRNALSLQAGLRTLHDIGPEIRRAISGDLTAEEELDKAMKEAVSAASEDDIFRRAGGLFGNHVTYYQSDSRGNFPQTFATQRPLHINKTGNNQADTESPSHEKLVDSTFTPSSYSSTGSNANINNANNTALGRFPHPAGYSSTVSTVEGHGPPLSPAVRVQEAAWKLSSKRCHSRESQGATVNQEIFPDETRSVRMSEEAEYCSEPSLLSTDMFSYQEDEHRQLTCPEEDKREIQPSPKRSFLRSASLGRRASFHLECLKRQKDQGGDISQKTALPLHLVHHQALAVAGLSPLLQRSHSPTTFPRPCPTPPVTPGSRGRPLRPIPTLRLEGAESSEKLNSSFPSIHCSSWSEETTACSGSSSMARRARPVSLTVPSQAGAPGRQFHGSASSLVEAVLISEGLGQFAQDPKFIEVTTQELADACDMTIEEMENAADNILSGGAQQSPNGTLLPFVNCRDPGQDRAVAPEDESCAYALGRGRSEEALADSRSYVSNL
T7 sequence (P54285 whole entry partner): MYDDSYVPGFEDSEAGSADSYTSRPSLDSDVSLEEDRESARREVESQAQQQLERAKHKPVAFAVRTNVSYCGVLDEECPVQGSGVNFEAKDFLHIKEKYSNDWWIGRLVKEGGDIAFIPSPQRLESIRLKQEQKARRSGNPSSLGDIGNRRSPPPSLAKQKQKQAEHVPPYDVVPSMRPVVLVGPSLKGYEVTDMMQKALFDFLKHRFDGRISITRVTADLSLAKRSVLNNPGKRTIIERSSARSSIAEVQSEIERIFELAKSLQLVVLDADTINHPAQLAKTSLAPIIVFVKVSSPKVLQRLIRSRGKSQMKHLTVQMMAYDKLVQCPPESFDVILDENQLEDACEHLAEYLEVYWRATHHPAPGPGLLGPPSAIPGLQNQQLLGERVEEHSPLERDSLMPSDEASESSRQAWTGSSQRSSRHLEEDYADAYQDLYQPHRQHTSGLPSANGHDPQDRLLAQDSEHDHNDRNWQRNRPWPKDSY
T7 sequence (O08532 25-956 partner limits assumed): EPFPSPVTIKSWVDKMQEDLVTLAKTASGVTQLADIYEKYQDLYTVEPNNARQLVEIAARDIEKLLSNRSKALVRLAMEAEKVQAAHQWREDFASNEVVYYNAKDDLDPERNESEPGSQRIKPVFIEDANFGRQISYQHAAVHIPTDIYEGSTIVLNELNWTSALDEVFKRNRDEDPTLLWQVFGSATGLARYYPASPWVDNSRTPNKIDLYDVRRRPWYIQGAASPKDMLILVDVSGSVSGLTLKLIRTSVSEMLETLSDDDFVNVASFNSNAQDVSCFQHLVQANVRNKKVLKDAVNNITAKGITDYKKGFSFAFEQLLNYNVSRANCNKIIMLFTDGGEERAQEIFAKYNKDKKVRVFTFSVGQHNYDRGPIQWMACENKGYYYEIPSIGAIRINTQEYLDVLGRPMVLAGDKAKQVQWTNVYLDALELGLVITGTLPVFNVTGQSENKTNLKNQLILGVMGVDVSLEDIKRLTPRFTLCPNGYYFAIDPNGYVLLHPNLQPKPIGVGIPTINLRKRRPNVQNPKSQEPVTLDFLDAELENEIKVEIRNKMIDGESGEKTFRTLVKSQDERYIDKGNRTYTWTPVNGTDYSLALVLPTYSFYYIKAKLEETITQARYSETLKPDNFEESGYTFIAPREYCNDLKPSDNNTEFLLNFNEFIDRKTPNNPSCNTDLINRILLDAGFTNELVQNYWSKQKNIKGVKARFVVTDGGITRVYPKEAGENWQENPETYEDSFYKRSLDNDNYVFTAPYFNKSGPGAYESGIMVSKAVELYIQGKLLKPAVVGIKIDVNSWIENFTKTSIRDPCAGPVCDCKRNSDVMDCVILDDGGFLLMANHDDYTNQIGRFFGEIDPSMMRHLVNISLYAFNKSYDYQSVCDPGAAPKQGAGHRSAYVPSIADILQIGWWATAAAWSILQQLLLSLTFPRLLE
T7 sequence (O08532 957-1103 partner limits assumed): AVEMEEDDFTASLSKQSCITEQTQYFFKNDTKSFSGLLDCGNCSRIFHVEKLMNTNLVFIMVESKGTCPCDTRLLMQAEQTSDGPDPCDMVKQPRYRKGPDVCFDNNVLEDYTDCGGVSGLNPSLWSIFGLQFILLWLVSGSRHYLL

recognition by microsomal FolDH [1]: not recognized by microsomal FolDH
substrate for ADH [3]: not a substrate for ADH
block of KCl-induced Ca^2+ signaling [4]: ~85%
Structure (SMILES): C=CC(C)(O)CCC=C(C)CCC=C(C)C (mixture of isomers) [Nerolidol, (E)-3,7,11-trimethyldodeca-1,6,10-trien-3-ol]
Predicted anti-seizure activity: long-acting (la) [2]: la

Structure (SMILES): CC(C)=CCC/C(C)=C/CC/C(C)=C/CO [All-trans farnesol, (2E,6E)-3,7,11-trimethyldodeca-2,6,10-trien-1-ol]
reduction in peak ethanol withdrawal ([5]; 200 mg/kg): ~56%
peak withdrawal effect (HIC score) ([5]; 200 mg/kg after hour 7, average of 24, 32 and 40 minute scores, scale 0 to 7): 2.67±0.29
time point of maximum effect ([5]; 200 mg/kg, after injection at hour 7): 32 min
effect on basal HICs in naïve WSP1 mice ([5]; 200 mg/kg, preliminary experiments): tended to reduce basal HICs
block of the N-type channel ([6]; at 250 nM farnesol, typical neuronal resting membrane potential): ~50%
activity on N-type Ca^2+ channels ([6]; micromolar concentration): inhibits
Predicted anti-seizure activity ([2]; based on effect on L-type Ca^2+ channels, CLogP and reversibility or ADH-FolDH recognition): ++
activity on P/Q-type Ca^2+ channels [7]: inactive
IC50 ([8]; reversible and dose-dependent, read-out: IC50, effect on arteries): ~2000 nM
activity on cardiac L-type Ca^2+ channels [9]: inhibits
Percent seizure reduction, GROUP A ([10]; 300 mg/kg i.p., injected 3 hours after withdrawal): 99%
Percent seizure reduction, GROUP B ([10]; 300 mg/kg i.p., injected 6 hours after withdrawal): 78%
effect on HIC scores in ‘air-breathing’ animals ([10]; 300 mg/kg i.p., pyrazole-injected controls): no significant effect
effect on HICs in withdrawing animals, 50 mg/kg ([10]; at 50 mg/kg, worded "Preferably"): no effect
effect on HICs in withdrawing animals, 300 mg/kg ([10]; dose of 300 mg/kg): suppresses almost completely
death after injections ([10]; mouse, in vivo): No death
duration of the farnesol effect ([10]; mouse, in vivo): approximately 1 hour
toxicity of the dose inducing complete seizure suppression ([10]; mouse, in vivo): non toxic
block of KCl-induced Ca^2+ signaling [4]: 65%
prevention of pentylenetetrazole-induced seizures [11]: not prevent
activity on neuronal L-type Ca^2+ channels (literature / prior studies) [12]: inhibits
activity on R-type Ca^2+ channels [13]: inactive

activity on neuronal L-type Ca^2+ channels compared with all-trans farnesol [4]: significantly less activity than FOH
Structure (SMILES): CC(C)=CCCC(C)=CCCC(C)=CC=O [FCHO, all-trans farnesal, reference compound]

Structure (SMILES): CC(C)=CCCC(C)=CCCC(C)=CCBr [Farnesyl bromide]
activity on KCl-induced arterial contraction [14]: did not showed significant activity

Structure (SMILES): CC(C)=CCC/C(C)=C/CC/C(=C\CO)C(F)(F)F [Trifluorofarnesol, (2E,6E)-,7,11-dimethyl-3-(trifluoromethyl)dodeca-2,6,10-trien-1-ol]
Predicted anti-seizure activity: long-acting (la) [2]: la

Structure (SMILES): CC(C)=CCC/C(C)=C/CC/C(C)=C/C(=O)O [farnesoic acid, all-trans farnesoic acid, reference compound]
activity on neuronal L-type Ca^2+ channels compared with all-trans farnesol [4]: substantially inactive

Structure (SMILES): CC(=O)OCC=C(C)CCC=C(C)CCC=C(C)C [farnesyl acetate]
activity on KCl-induced arterial contraction [14]: did not showed significant activity

Structure (SMILES): COCC=C(C)CCC=C(C)CCC=C(C)C [farnesyl methyl ether]
activity on KCl-induced arterial contraction [14]: did not showed significant activity

Structure (SMILES): CC(C)=CCC/C(C)=C/CC/C(C)=C/COP(=O)(O)OP(=O)(O)O [farnesyl-PP, farnesyl pyrophosphate, reference compound]
activity on neuronal L-type Ca^2+ channels compared with all-trans farnesol [4]: substantially inactive

Structure (SMILES): CC(=O)CCC=C(C)CCC=C(C)CCC=C(C)C [farnesylacetone]
activity on KCl-induced arterial contraction [14]: did not showed significant activity

Structure (SMILES): CC(C)=CCC/C(C)=C/CO [geraniol, reference compound]
activity on Ca^2+ channels / smooth muscle L-type channels (literature / prior studies) [8]: inactive

Structure (SMILES): CC(C)=CCC/C(C)=C/CC/C(C)=C/CC/C(C)=C/CO [geranylgeraniol, reference compound]
activity on Ca^2+ channels / smooth muscle L-type channels (literature / prior studies) [8]: inactive

catalytic efficiency of ADH, lower than toward all-trans farnesol [3]: approximately 10 fold
activity on neuronal L-type Ca^2+ channels compared with all-trans farnesol [4]: significantly more active
Structure (SMILES): CC(C)=CCC/C(C)=C/CC/C(C)=C\CO [“Cis” farnesol, (2Z,6E)-3,7,11-trimethyldodeca-2,6,10-trien-1-ol]
activity on KCl-induced arterial contraction [14]: significantly more active
